Data: patent US12161722B2, “Bifunctional heterocyclic compound having BTK degradation function via ubiquitin proteasome pathway, and use thereof” (KOREA RESEARCH INSTITUTE OF CHEMICAL TECHNOLOGY, priority 2021, dated 2024)

Target: T1, WT BTK protein (Homo sapiens, UniProt Q06187)
T1 construct: measured for intracellular BTK protein levels by Western blotting; endogenous in cells; host or cells: TMD-8 or RAMOS cells
Test: BTK protein degradation assay (Western blotting), WT BTK
Format: cell-based
Settings: concentration range accounting for 50% degradation of WT BTK protein, TMD-8 or RAMOS cells, 24 hours
Procedure, shortened: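 TMD-8 cells (1×10^6 cells/mL) treated 24 h with compound serial dilutions, then lysed in RIPA. Equal protein loads analysed by Western blot for BTK with GAPDH/β-actin as loading controls; activity binned by concentration giving 50% WT BTK degradation.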

T1 sequence (Q06187 whole entry): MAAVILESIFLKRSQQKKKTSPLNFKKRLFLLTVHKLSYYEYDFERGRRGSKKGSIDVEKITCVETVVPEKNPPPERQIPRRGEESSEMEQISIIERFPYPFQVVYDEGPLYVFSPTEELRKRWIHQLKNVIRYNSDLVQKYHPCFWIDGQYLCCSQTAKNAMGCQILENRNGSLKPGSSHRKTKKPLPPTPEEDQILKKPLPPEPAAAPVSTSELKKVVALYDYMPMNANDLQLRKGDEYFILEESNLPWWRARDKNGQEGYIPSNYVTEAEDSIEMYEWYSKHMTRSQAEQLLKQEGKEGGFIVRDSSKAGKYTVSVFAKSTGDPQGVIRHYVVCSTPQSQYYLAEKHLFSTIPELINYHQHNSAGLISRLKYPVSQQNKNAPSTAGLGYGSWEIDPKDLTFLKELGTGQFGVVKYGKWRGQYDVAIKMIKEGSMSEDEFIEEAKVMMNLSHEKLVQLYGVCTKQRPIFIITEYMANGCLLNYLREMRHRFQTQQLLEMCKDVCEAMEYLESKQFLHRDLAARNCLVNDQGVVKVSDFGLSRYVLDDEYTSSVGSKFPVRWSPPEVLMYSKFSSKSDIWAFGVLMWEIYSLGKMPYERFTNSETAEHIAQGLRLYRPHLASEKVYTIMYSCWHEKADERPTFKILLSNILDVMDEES

SMILES	DC50
Cc1cccc(C)c1Nc1nn(C)c2nc(Nc3ccc4c(c3)CN(C(=O)CCC3CCN(c5ccc6c(c5)C(=O)N(C5CCC(=O)NC5=O)C6=O)CC3)CC4)ncc12 (stereo not shown) [Compound 126, 5-(4-(3-(7-((3-((2,6-Dimethylphenyl)amino)-1-methyl-1H-pyrazolo[3,4-d]pyrimidin-6-yl)amino)-3,4-dihydroisoquinolin-2 (1H)-yl)-3-oxopropyl)piperidin-1-yl)-2-(2,6-dioxopiperidin-3-yl)isoindoline-1,3-dione]	0.1 to 10 nM
Cc1cccc(C)c1Nc1nn(C)c2nc(Nc3ccc4c(c3)CN(C(=O)COC3CCN(c5ccc6c(c5)C(=O)N(C5CCC(=O)NC5=O)C6=O)CC3)CC4)ncc12 (stereo not shown) [Compound 127, 5-(4-(2-(7-((3-((2,6-Dimethylphenyl)amino)-1-methyl-1H-pyrazolo[3,4-d]pyrimidin-6-yl)amino)-3,4-dihydroisoquinolin-2 (1H)-yl)-2-oxoethoxy)piperidin-1-yl)-2-(2,6-dioxopiperidin-3-yl)isoindoline-1,3-dione]	0.1 to 10 nM
Cc1cccc(C)c1Nc1nn(C)c2nc(Nc3ccc4c(c3)CN(C(=O)[C@H]3CC[C@H](OC5CCN(c6ccc7c(c6)C(=O)N(C6CCC(=O)NC6=O)C7=O)CC5)CC3)CC4)ncc12 (stereo partly shown) [Compound 128, 5-(4-(((1r,4r)-4-(7-((3-((2,6-dimethylphenyl)amino)-1-methyl-H-pyrazolo[3,4-d]pyrimidin-6-yl)amino)-1,2,3,4-tetrahydroisoquinoline-2-carbonyl)cyclohexyl)oxy)piperidin-1-yl)-2-(2,6-dioxopiperidin-3-yl)isoindoline-1,3-dione]	0.1 to 10 nM
Cc1cccc(C)c1Nc1nn(C)c2nc(Nc3ccc4c(c3)CN(C(=O)CC3(O)CCN(c5ccc6c(c5)C(=O)N(C5CCC(=O)NC5=O)C6=O)CC3)CC4)ncc12 (stereo not shown) [Compound 129, 5-(4-(2-(7-((3-((2,6-dimethylphenyl)amino)-1-methyl-1H-pyrazolo[3,4-d]pyrimidin-6-yl)amino)-3,4-dihydroisoquinolin-2 (1H)-yl)-2-oxoethyl)-4-hydroxypiperidin-1-yl)-2-(2,6-dioxopiperidin-3-yl)isoindoline-1,3-dione]	0.1 to 10 nM
Cc1cccc(C)c1Nc1nn(C)c2nc(Nc3ccc4c(c3)CN(CC3(O)CCN(c5ccc6c(c5)C(=O)N(C5CCC(=O)NC5=O)C6=O)CC3)CC4)ncc12 (stereo not shown) [Compound 130, 5-(4-((7-((3-((2,6-dimethylphenyl)amino)-1-methyl-1H-pyrazolo[3,4-d]pyrimidin-6-yl)amino)-3,4-dihydroisoquinolin-2 (1H)-yl)methyl)-4-hydroxypiperidin-1-yl)-2-(2,6-dioxopiperidin-3-yl)isoindoline-1,3-dione]	0.1 to 10 nM
Cc1cccc(C)c1Nc1nn(C)c2nc(Nc3ccc4c(c3)CN(CCC3(O)CCN(c5ccc6c(c5)C(=O)N(C5CCC(=O)NC5=O)C6=O)CC3)CC4)ncc12 (stereo not shown) [Compound 131, 5-(4-(2-(7-((3-((2,6-Dimethylphenyl)amino)-1-methyl-1H-pyrazolo[3,4-d]pyrimidin-6-yl)amino)-3,4-dihydroisoquinolin-2 (1H)-yl)ethyl)-4-hydroxypiperidin-1-yl)-2-(2,6-dioxopiperidin-3-yl)isoindoline-1,3-dione]	0.1 to 10 nM
Cc1cccc(C)c1Nc1nn(C)c2nc(Nc3ccc4c(c3)CN(CC3CCN(c5ccc6c(n5)CN(C5CCC(=O)NC5=O)C6=O)CC3)CC4)ncc12 (stereo not shown) [Compound 132, 3-(2-(4-((7-((3-((2,6-dimethylphenyl)amino)-1-methyl-1H-pyrazolo[3,4-d]pyrimidin-6-yl)amino)-3,4-dihydroisoquinolin-2 (1H)-yl)methyl)piperidin-1-yl)-5-oxo-5,7-dihydro-6H-pyrrolo[3,4-b]pyridin-6-yl)piperidin-2,6-one]	0.1 to 10 nM
